# In patent US20230108906A1, “SUBSTITUTED BICYCLIC AND TRICYCLIC UREAS AND AMIDES, ANALOGUES THEREOF, AND METHODS USING SAME” (Arbutus Biopharma Corporation, priority 2019, published 2023):
# Tested on: HBV rcDNA in HepDE19 cells
# Assay: HepDE19 assay with bDNA quantitation of HBV rcDNA
# Type: cell-based, hepatitis B virus (HBV)
# Conditions: Hepatitis B virus, HepDE19, 168 h, inhibition of rcDNA formation in HepDE19 cells (HepG2 derived), Tet-free medium, 7 day incubation, Quantigene 2.0 bDNA readout, top concentration 25 μM; read-out: DE-19bDNA EC50
# In short: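 HepDE19 cells (HepG2-derived, Tet-regulated HBV) switched to Tet-free medium, then treated 7 days at 37 °C with compound, 8-point titration from 25 μM, 0.5% DMSO. rcDNA quantified by bDNA with HBV probes; EC50/EC90 via 4-parameter fit. Viability (CC50) by CellTiter-Glo ATP on 5,000 cells/well after 4 days.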
row,SMILES,EC50
1,"CN(C(=O)Nc1ccc(F)c(C(F)F)c1)C1COCc2nc(NCCN)c3cc(F)c(F)cc3c21 (racemic) [Compound 239, 1-(6-((2-Aminoethyl)amino)-8,9-difluoro-1,4-dihydro-2H-pyrano[3,4-c]isoquinolin-1-yl)-3-(3-(difluoromethyl)-4-fluorophenyl)-1-methylurea]",0.3 µM
2,"CN(C(=O)Nc1ccc(F)c(Cl)c1)C1COCc2[nH]c(=O)c3cscc3c21 (stereo not shown) [Compound 105, 3-(3-Chloro-4-fluorophenyl)-1-methyl-1-(4-oxo-4,5,8,9-tetrahydro-6H-pyrano[3,4-b]thieno[3,4-d]pyridin-9-yl)urea]",0.02 µM
3,"CN(C(=O)Nc1ccc(F)c(Cl)c1)C1CCCc2[nH]c(=O)cc(C(F)(F)F)c21 (stereo not shown) [Compound 2, 3-(3-Chloro-4-fluorophenyl)-1-methyl-1-(2-oxo-4-(trifluoromethyl)-1,2,5,6,7,8-hexahydroquinolin-5-yl)urea]",1.5 µM
4,"CN(C(=O)Nc1ccc(F)c(Cl)c1)C1CCCc2c1c1ccccc1c(=O)n2C (stereo not shown) [Compound 31, 3-(3-Chloro-4-fluorophenyl)-1-methyl-1-(5-methyl-6-oxo-1,2,3,4,5,6-hexahydrophenanthridin-1-yl)urea]",0.26 µM
5,"CN(C(=O)NC1(C(F)(F)F)CC1)[C@@H]1COCc2[nH]c(=O)c3cc(F)c(F)cc3c21 [Compound 145, (S)-1-(8,9-Difluoro-6-oxo-1,4,5,6-tetrahydro-2H-pyrano[3,4-c]isoquinolin-1-yl)-1-methyl-3-(1-(trifluoromethyl)cyclopropyl)urea]",9 µM
6,"CN(C(=O)Nc1ccc(F)c(F)c1)C1CCCc2[nH]c(=O)c3cc(F)ccc3c21 (stereo not shown) [Compound 32, 3-(3,4-Difluorophenyl)-1-(8-fluoro-6-oxo-1,2,3,4,5,6-hexahydrophenanthridin-1-yl)-1-methylurea]",0.11 µM
7,"CN(C(=O)Nc1ccc(F)c(Cl)c1)C1CCCc2[nH]c(=O)c3c(c21)CCOC3 (single isomer, unassigned) [Compound 60, 3-(3-Chloro-4-fluorophenyl)-1-methyl-1-(5-oxo-1,4,5,6,7,8,9,10-octahydro-2H-pyrano[3,4-c]quinolin-10-yl)urea]",3.2 µM
8,"CN(C(=O)Nc1ccc(F)c(Cl)c1)C1CCCc2[nH]c(=O)c3ccccc3c21 (racemic) [Compound 6, 3-(3-Chloro-4-fluorophenyl)-1-methyl-1-(6-oxo-1,2,3,4,5,6-hexahydrophenanthridin-1-yl)urea]",0.08 µM
9,"CN(C(=O)Nc1ccc(F)c(C#N)c1)C1COCc2[nH]c(=O)c3cc(F)c(F)cc3c21 (racemic) [Compound 106, 3-(3-Cyano-4-fluorophenyl)-1-(8,9-difluoro-6-oxo-1,4,5,6-tetrahydro-2H-pyrano[3,4-c]isoquinolin-1-yl)-1-methylurea]",0.02 µM
10,"CN(C(=O)Nc1ccc(F)c(C(F)F)c1)[C@@H]1COCc2c1c1cc(F)c(F)cc1c(=O)n2C [Compound 233, (S)-1-(8,9-Difluoro-5-methyl-6-oxo-1,4,5,6-tetrahydro-2H-pyrano[3,4-c]isoquinolin-1-yl)-3-(3-(difluoromethyl)-4-fluorophenyl)-1-methylurea]",0.02 µM

# Same assay, conditions: Hepatitis B virus, HepDE19, 168 h, read-out: DE-19bDNA EC50 (uM), inhibition of rcDNA formation in HepDE19 cells (HepG2 derived), Tet-free medium, 7 day incubation, Quantigene 2.0 bDNA readout, top concentration 25 μM
row,SMILES,EC50
1,"CN(C(=O)N1Cc2ccc(C(F)(F)F)cc2C1)[C@@H]1COCc2[nH]c(=O)c3cc(F)c(F)cc3c21 [Compound 230, (S)—N-(8,9-Difluoro-6-oxo-1,4,5,6-tetrahydro-2H-pyrano[3,4-c]isoquinolin-1-yl)-N-methyl-5-(trifluoromethyl)isoindoline-2-carboxamide]",24 µM

# Same assay, conditions: inhibition of rcDNA formation in HepDE19 cells (HepG2 derived), Tet-free medium, 7 day incubation, Quantigene 2.0 bDNA readout, top concentration 25 μM; read-out: DE-19bDNA EC50
row,SMILES,EC50
1,"CN(C(=O)Nc1ccc(F)c(C#N)c1)C1CSCc2[nH]c(=O)c3cc(F)ccc3c21 (single isomer, unassigned) [Compound 186, 3-(3-Cyano-4-fluorophenyl)-1-(8-fluoro-6-oxo-1,4,5,6-tetrahydro-2H-thiopyrano[3,4-c]isoquinolin-1-yl)-1-methylurea]",0.06 µM
2,"CN(C(=O)Nc1ccc(F)c(Cl)c1)C1CCCc2[nH]c(=O)c3ccccc3c21 (single isomer, unassigned) [Compound 17, 3-(3-Chloro-4-fluorophenyl)-1-methyl-1-(6-oxo-1,2,3,4,5,6-hexahydrophenanthridin-1-yl)urea]",0.05 µM
3,"CN(C(=O)Nc1ccc(F)c(Cl)c1)C1CCCc2[nH]c(=O)c3cc(F)c(F)cc3c21 (stereo not shown) [Compound 39, 3-(3-Chloro-4-fluorophenyl)-1-(8,9-difluoro-6-oxo-1,2,3,4,5,6-hexahydrophenanthridin-1-yl)-1-methylurea]",0.01 µM
4,"CN(C(=O)Nc1ccc(F)c(Cl)c1)C1CSCc2[nH]c(=O)c3cc(F)c(F)cc3c21 (single isomer, unassigned) [Compound 188, 3-(3-Chloro-4-fluorophenyl)-1-(8,9-difluoro-6-oxo-1,4,5,6-tetrahydro-2H-thiopyrano[3,4-c]isoquinolin-1-yl)-1-methylurea]",0.02 µM
5,"CN(C(=O)Nc1ccc(F)c(Cl)c1)C1CNCc2[nH]c(=O)c3cc(F)c(F)cc3c21 (single isomer, unassigned) [Compound 149, 3-(3-Chloro-4-fluorophenyl)-1-(8,9-difluoro-6-oxo-1,2,3,4,5,6-hexahydrobenzo[c][1,7]naphthyridin-1-yl)-1-methylurea]",0.25 µM
6,"NS(=O)(=O)CCN(C(=O)Nc1ccc(F)c(Cl)c1)C1COCc2[nH]c(=O)c3cc(F)c(F)cc3c21 (single isomer, unassigned) [Compound 137, 2-(3-(3-Chloro-4-fluorophenyl)-1-(8,9-difluoro-6-oxo-1,4,5,6-tetrahydro-2H-pyrano[3,4-c]isoquinolin-1-yl)ureido)ethane-1-sulfonamide]",0.01 µM
7,"CN(C(=O)Nc1cc(F)c(F)c(Cl)c1)C1COCc2[nH]c(=O)c3cc(F)ccc3c21 (single isomer, unassigned) [Compound 107, 3-(3-Chloro-4,5-difluorophenyl)-1-(8-fluoro-6-oxo-1,4,5,6-tetrahydro-2H-pyrano[3,4-c]isoquinolin-1-yl)-1-methylurea]",0.93 µM
8,"CN(C(=O)N1Cc2ccc(F)cc2C1)C1CNCc2[nH]c(=O)c3cc(F)c(F)cc3c21 (single isomer, unassigned) [Compound 225, N-(8,9-Difluoro-6-oxo-1,2,3,4,5,6-hexahydrobenzo[c][1,7]naphthyridin-1-yl)-5-fluoro-N-methylisoindoline-2-carboxamide]",3.4 µM
9,"CNc1nc2c(c3cc(F)c(F)cc13)C(N(C)C(=O)Nc1ccc(F)c(C(F)F)c1)COC2 (single isomer, unassigned) [Compound 235, 1-(8,9-Difluoro-6-(methylamino)-1,4-dihydro-2H-pyrano[3,4-c]isoquinolin-1-yl)-3-(3-(difluoromethyl)-4-fluorophenyl)-1-methylurea]",1.81 µM
10,"CN(C(=O)Nc1ccc(F)c(Cl)c1)C1CSCc2[nH]c(=O)c3cc(F)ccc3c21 (single isomer, unassigned) [Compound 183, 3-(3-Chloro-4-fluorophenyl)-1-(8-fluoro-6-oxo-1,4,5,6-tetrahydro-2H-thiopyrano[3,4-c]isoquinolin-1-yl)-1-methylurea]",1.1 µM
11,"CC(=O)N1Cc2[nH]c(=O)c3cc(F)c(F)cc3c2C(N(C)C(=O)Nc2ccc(F)c(C#N)c2)C1 (single isomer, unassigned) [Compound 178, 1-(3-Acetyl-8,9-difluoro-6-oxo-1,2,3,4,5,6-hexahydrobenzo[c][1,7]naphthyridin-1-yl)-3-(3-cyano-4-fluorophenyl)-1-methylurea]",11 µM
